Patent publication US4160097A, “1-(2-Phenylureylene)imidazoles” (Westwind Pharmaceuticals, Inc., priority 1977, dated 1979)
In brackets after ≈: the same amount, converted by molar mass. Where two headings read alike, the source gives them in different places.

How the values were obtained:
[1] = test system: carrageenan rat paw edema; assay: Rat Paw Edema Assay, Local Administration; type: in vivo; conditions: read-out: % Difference from Control; for change in vivo at 100 mg/kg: local administration
Protocol: (§1) The anti-inflammatory activity of representative compounds of this invention was determined by the rat paw edema assay both by local administration (Table XI below) and by oral dosing (Table XII below). For the oral dosing, the procedure of C. A. Winter, E. A. Risley and G. W. Nuss, Proc. Soc. Exp. Biol. Med. III, 544 (1962) was employed with measurement taken four hours after the drug was administered. The local administration tests were carried out similarly except the irritant (carrageenan) and the test compound were injected simultaneously at time zero.
(§2) Tables XI and XII report the anti-inflammatory activity of the compounds tested as % difference in the edema or swelling as compared with the control. These Tables also give the response in many instances of more than one dose level of the same drug.

[2] = test system: carrageenan rat paw edema; assay: Rat Paw Edema Assay, Oral Dosing; type: in vivo; conditions: 4 h, four hours after drug, read-out: % Difference from Control; for change in vivo at 100 mg/kg: 100 mg/kg oral; for change in vivo at 400 mg/kg: 400 mg/kg oral
Protocol: as §1, §2

[3] = test system: Trichophyton mentagrophytes; assay: Antifungal activity, agar dilution method; type: cell-based, Trichophyton mentagrophytes (ATCC No. 8757 and 9129); conditions: T. mentagrophytes, read-out: Parts Per Million Inhibitions of T. mentagrophytes
Protocol: (§3) various compounds of this invention display antifungal and anti-yeast activity.
(§4) In Table IX below are listed the antifungal activity of a number of compounds encompassed in the present invention. These were determined by the agar dilution method as described in Chapters 2 and 3 of Methods in Microbiology, Vol. 7B, edited by J. R. Norris and D. W. Ribbons, Academic Press, New York, 1972.

[4] = test system: Trichophyton rubrum; assay: Antifungal activity, agar dilution method; type: cell-based, Trichophyton rubrum (ATCC No. 10218 and 14001); conditions: T. rubrum, read-out: Parts Per Million Inhibitions of T. rubrum
Protocol: as §3, §4

[5] = test system: Trichophyton ajelloi; assay: Antifungal activity, agar dilution method; type: cell-based; conditions: Arthroderma uncinatum, T. ajelloi, read-out: Parts Per Million Inhibitions of T. ajelloi
Protocol: as §3, §4

[6] = test system: humeral or antibody response; assay: hemolysin test in mice; type: in vivo; conditions: Mus musculus, sc, dose reducing antibody activity by 50% vs control, read-out: HL(ED50)
[7] = test system: cell-mediated immune response to the antigen, Mycobacterium tuberculosis H37Ra; assay: delayed hypersensitivity test; type: in vivo, mouse; conditions: Mus musculus, sc, read-out: D.H.S. (ED60)
Protocol: The immunosuppressant activities of the compounds of this invention were determined via the hemolysin test in mice and by the delayed hypersensitivity test. The hemolysin test used is that described in Methods in Immunology, edited by D. H. Campbell et al, W. A. Benjamin, New York 1963 pages 172-175, and measures humeral or antibody response. The delayed hypersensitivity test measures the effect of a test compound on the ability of a subject mouse to mount a cell-mediated immune response to the antigen, Mycobacterium tuberculosis H37Ra. The mouse is sensitized to the antigen by subcutaneous administration in the base of the tail. The development of the delayed hypersensitivity response may be measured at any time beginning six days after sensitization but is usually done on the ninth day as follows: The right hind paw is injected with purified protein derivative (tuberculin) while the left hind paw (control) receives physiological saline. Both paw volumes are measured after twenty-four hours and significant increase in the volume of the right hand paw is taken as a measure of an effective delayed hypersensitivity response. All compounds were administered by the subcutaneous route.
The D.H.S. (ED60) mg./kg. s.c. value appearing in column 3 is an expression of the effectiveness of the drug in reducing the edema that accompanies the cell-mediated immune response. It is a measure of the number of milligrams per kilogram of body weight of the drug administered subcutaneously which is required to reduce the edema of the cell-mediated immune response by 60% when compared to the control.

[8] = mice, dose reducing edema of cell-mediated immune response by 60% vs control

Row | SMILES | change in vivo at 100 mg/kg [2] [%] | MIC [3] [µg/mL] | MIC [4] [µg/mL] | MIC [5] [µg/mL] | other results
1 | CCCCCCC(=O)Nc1ccccc1-n1ccnc1 [Compound 7] | -52 |  |  |  | change in vivo at 100 mg/kg [1]: -22%
2 | CCCCCCCC(=O)Nc1ccccc1-n1ccnc1 [Compound 8] | -22 | 8 (≈ 28 µM) | 8 (≈ 28 µM) |  | change in vivo at 400 mg/kg [2]: -13%
3 | CCCCCCCCC(=O)Nc1ccccc1-n1ccnc1 [Compound 9] |  | 16 (≈ 53.4 µM) | 16 (≈ 53.4 µM) |  | 
4 | CCCCCCCCCC(=O)Nc1ccccc1-n1ccnc1 [Compound 10] | -30 | 16 (≈ 51 µM) | 16 (≈ 51 µM) |  | 
5 | C=CCCCCCCCCC(=O)Nc1ccccc1-n1ccnc1 [Compound 16] |  | 4 (≈ 12.3 µM) | 2 (≈ 6.15 µM) |  | 
6 | O=C(C=Cc1ccccc1)Nc1ccccc1-n1ccnc1 [Compound 20] | -59 | 100 (≈ 346 µM) |  | 100 (≈ 346 µM) | 
7 | Cc1ccccc1C(=O)Nc1ccccc1-n1ccnc1 [Compound 35] | -50 | 16 (≈ 57.7 µM) |  | 100 (≈ 361 µM) | 
8 | CC(C)(C)c1ccc(C(=O)Nc2ccccc2-n2ccnc2)cc1 [Compound 39] | -50 | 100 (≈ 313 µM) |  | 100 (≈ 313 µM) | 
9 | O=C(Nc1ccccc1-n1ccnc1)c1ccccc1Cl [Compound 49] | -35 |  |  |  | change in vivo at 100 mg/kg [1]: -35%
10 | O=C(Nc1ccccc1-n1ccnc1)c1ccc(Cl)cc1 [Compound 51] | -57 |  |  |  | change in vivo at 100 mg/kg [1]: -57%
11 | COc1ccccc1C(=O)Nc1ccccc1-n1ccnc1 [Compound 58] |  | 100 (≈ 341 µM) | 100 (≈ 341 µM) | 100 (≈ 341 µM) | 
12 | O=C(Nc1ccccc1-n1ccnc1)c1cccc(Br)c1 [Compound 59] |  |  | 100 (≈ 292 µM) |  | 
13 | O=C(Nc1ccccc1-n1ccnc1)c1ccc2ccccc2c1 [Compound 62] |  | 100 (≈ 319 µM) | 100 (≈ 319 µM) | 100 (≈ 319 µM) | 
14 | CCCc1nc2ccccc2n2ccnc12 [Compound 112] | -17 | 128 (≈ 606 µM) | 64 (≈ 303 µM) |  | change in vivo at 400 mg/kg [2]: -68%
15 | CCCCCCCc1nc2ccccc2n2ccnc12 [Compound 116] | 104 | 16 (≈ 59.8 µM) | 16 (≈ 59.8 µM) |  | ED50 [6]: > 50 mg/kg; ED60 [7, 8]: 56 mg/kg; change in vivo at 400 mg/kg [2]: -18%
16 | CCCCCCCCCc1nc2ccccc2n2ccnc12 [Compound 118] |  | 256 (≈ 867 µM) | 4 (≈ 13.5 µM) |  | ED50 [6]: > 50 mg/kg; ED60 [7, 8]: 43 mg/kg
17 | CCCCCCCCCCCCCCCc1nc2ccccc2n2ccnc12 [Compound 119] |  |  | 8 (≈ 21.1 µM) |  | 
18 | CCCCCCCCCCCCCCCCCc1nc2ccccc2n2ccnc12 [Compound 120] |  |  | 1 (≈ 2.45 µM) |  | 
19 | FC(F)(F)c1nc2ccccc2n2ccnc12 [Compound 122] | -61 |  | 32 (≈ 135 µM) |  | change in vivo at 100 mg/kg [1]: -61%
20 | C=CCCCCCCCCc1nc2ccccc2n2ccnc12 [Compound 123] | 0 |  | 2 (≈ 6.51 µM) |  | change in vivo at 400 mg/kg [2]: -50%
21 | c1ccc(OCc2nc3ccccc3n3ccnc23)cc1 [Compound 126] |  | 100 (≈ 363 µM) | 100 (≈ 363 µM) | 100 (≈ 363 µM) | ED50 [6]: 35 mg/kg; ED60 [7, 8]: > 50 mg/kg
22 | C(=Cc1nc2ccccc2n2ccnc12)c1ccccc1 [Compound 127] |  | 16 (≈ 59 µM) | 16 (≈ 59 µM) |  | ED50 [6]: > 50 mg/kg; ED60 [7, 8]: 36 mg/kg
23 | c1ccc2c(c1)nc(C1CCC1)c1nccn12 [Compound 128] | -39 |  | 16 (≈ 71.7 µM) |  | 
24 | c1ccc2c(c1)nc(C1CCCCC1)c1nccn12 [Compound 129] | -30 | 16 (≈ 63.7 µM) | 8 (≈ 31.8 µM) | 16 (≈ 63.7 µM) | 

Row | SMILES | change in vivo at 100 mg/kg [2] [%] | MIC [3] [µg/mL] | MIC [4] [µg/mL] | MIC [5] [µg/mL] | other results
25 | Cc1ccccc1-c1nc2ccccc2n2ccnc12 [Compound 132] | -76 | 100 (≈ 386 µM) |  | 100 (≈ 386 µM) | 
26 | Cc1ccc(-c2nc3ccccc3n3ccnc23)cc1 [Compound 134] | -43 | 16 (≈ 61.7 µM) |  | 100 (≈ 386 µM) | ED50 [6]: 0.5 mg/kg; ED60 [7, 8]: 7.2 mg/kg
27 | c1ccc(-c2ccc(-c3nc4ccccc4n4ccnc34)cc2)cc1 [Compound 135] |  | 100 (≈ 311 µM) |  | 100 (≈ 311 µM) | ED50 [6]: 0.033 mg/kg; ED60 [7, 8]: 0.22 mg/kg
28 | CC(C)(C)c1ccc(-c2nc3ccccc3n3ccnc23)cc1 [Compound 137] | -26 | 100 (≈ 332 µM) |  | 100 (≈ 332 µM) | ED50 [6]: < 0.125 mg/kg; ED60 [7, 8]: 3.2 mg/kg
29 | COc1ccc(-c2nc3ccccc3n3ccnc23)cc1 [Compound 138] |  | 100 (≈ 363 µM) |  | 100 (≈ 363 µM) | ED50 [6]: 0.72 mg/kg; ED60 [7, 8]: 27 mg/kg
30 | Brc1ccccc1-c1nc2ccccc2n2ccnc12 [Compound 145] |  | 100 (≈ 308 µM) | 100 (≈ 308 µM) | 100 (≈ 308 µM) | 
31 | O=C(O)c1ccccc1-c1nc2ccccc2n2ccnc12 [Compound 148] | -52 |  |  |  | change in vivo at 0.001 mg ([1]; 1 μg, injected directly into paw): -32.6%; change in vivo at 0.01 mg ([1]; 10 μg, injected directly into paw): -53.5%; change in vivo at 0.1 mg ([1]; 100 μg, injected directly into paw): -14.3%; change in vivo at 100 mg/kg [1]: -39%
32 | O=[N+]([O-])c1ccc(-c2nc3ccccc3n3ccnc23)cc1 [Compound 151] |  |  | 1 (≈ 3.44 µM) |  | ED50 [6]: 0.3 mg/kg; ED60 [7, 8]: 1.52 mg/kg
33 | COc1cccc(-c2nc3ccccc3n3ccnc23)c1 [Compound 159] |  | 100 (≈ 363 µM) | 100 (≈ 363 µM) | 100 (≈ 363 µM) | ED50 [6]: 3 mg/kg; ED60 [7, 8]: 27 mg/kg
34 | c1ccc2c(-c3nc4ccccc4n4ccnc34)cccc2c1 [Compound 160] |  | 100 (≈ 339 µM) | 100 (≈ 339 µM) | 100 (≈ 339 µM) | 
35 | CC(=O)Oc1ccc(-c2nc3ccccc3n3ccnc23)cc1 [Compound 163] |  | 100 (≈ 330 µM) | 100 (≈ 330 µM) | 100 (≈ 330 µM) | 
36 | CCCC(=O)Oc1ccc(-c2nc3ccccc3n3ccnc23)cc1 [Compound 164] |  | 100 (≈ 302 µM) | 100 (≈ 302 µM) | 100 (≈ 302 µM) | 
37 | CCCCCCCCCC(=O)Oc1ccc(-c2nc3ccccc3n3ccnc23)cc1 [Compound 165] |  | 100 (≈ 241 µM) | 100 (≈ 241 µM) | 100 (≈ 241 µM) | 
38 | c1ccc2c(c1)nc(NC1CCCCC1)c1nccn12 [Compound 167] |  | 100 (≈ 375 µM) | 100 (≈ 375 µM) | 100 (≈ 375 µM) | 
39 | CCCCNc1nc2ccccc2n2ccnc12 [Compound 168] |  | 100 (≈ 416 µM) | 100 (≈ 416 µM) | 100 (≈ 416 µM) | 
40 | CCCNc1nc2ccccc2n2ccnc12 [Compound 169] |  | 100 (≈ 442 µM) | 100 (≈ 442 µM) | 100 (≈ 442 µM) | ED50 [6]: 46 mg/kg; ED60 [7]: > 50 mg/kg
41 | Fc1ccccc1-c1nc2ccccc2n2ccnc12 [Compound 173] |  | 100 (≈ 380 µM) | 100 (≈ 380 µM) | 100 (≈ 380 µM) | ED60 [7, 8]: 40 mg/kg
42 | Clc1cccc(Nc2nc3ccccc3n3ccnc23)c1 [Compound 179] |  | 100 (≈ 339 µM) | 100 (≈ 339 µM) | 100 (≈ 339 µM) | 
43 | Fc1ccc(Nc2nc3ccccc3n3ccnc23)cc1 [Compound 182] |  |  | 100 (≈ 359 µM) |  | ED50 [6]: 1.1 mg/kg
44 | COc1ccccc1Nc1nc2ccccc2n2ccnc12 [Compound 184] |  | 100 (≈ 344 µM) | 100 (≈ 344 µM) | 100 (≈ 344 µM) | 
45 | COc1cccc(Nc2nc3ccccc3n3ccnc23)c1 [Compound 185] |  | 100 (≈ 344 µM) | 100 (≈ 344 µM) | 100 (≈ 344 µM) | 
46 | COc1ccc(Nc2nc3ccccc3n3ccnc23)cc1 [Compound 186] |  | 100 (≈ 344 µM) | 100 (≈ 344 µM) | 100 (≈ 344 µM) | 
47 | O=[N+]([O-])c1ccccc1Nc1nc2ccccc2n2ccnc12 [Compound 187] |  |  | 100 (≈ 328 µM) | 100 (≈ 328 µM) | 
48 | O=[N+]([O-])c1ccc(Nc2nc3ccccc3n3ccnc23)cc1 [Compound 189] |  |  | 100 (≈ 328 µM) | 100 (≈ 328 µM) | 
